In ChEMBL document CHEMBL1135201, “Combinatorial library of indinavir analogues: replacement for the aminoindanol at P2'” (Bioorg Med Chem Lett, 2002) one finds ClC95 and IC50 data, which are given here for four compounds.

The subject of one assay is MT4. Put plainly: Ability to inhibit the spread of viral infection in MT-4 human T-lymphoid cells infected with HIV IIIb. The assay is classed as functional.
Assay [1] deals with Human immunodeficiency virus type 1 protease (Human immunodeficiency virus 1, UniProt Q72874). Nature of the assay: Ability to prevent cleavage of acompound by the HIV protease wild-type enzyme.

`Cc1cc(O)cc(C)c1CNC(=O)[C@H](Cc1ccccc1)C[C@@H](O)CN1CCN(S(=O)(=O)c2ccc3c(c2)CCN3c2ncccn2)C[C@@H]1C(=O)NC(C)(C)C` returned a ClC95 with MT4 of 31.3 nM. Further, the midpoint of inhibition in assay [1], the IC50, lay at 0.2 nM.

In turn, `CSc1nccc(-c2ccc(S(=O)(=O)N3CCN(C[C@H](O)C[C@@H](Cc4ccccc4)C(=O)NCc4c(C)cc(O)cc4C)[C@@H](C(=O)NC(C)(C)C)C3)s2)n1` gave a ClC95 with MT4 of 62.5 nM. The compound further came in with an IC50 in assay [1] of less than 0.2 nM.

For `Cc1cc(O)cc(C)c1CNC(=O)[C@H](Cc1ccccc1)C[C@@H](O)CN1CCN(S(=O)(=O)c2cccs2)C[C@@H]1C(=O)NC(C)(C)C`, the ClC95 with MT4 was 62.5 nM. The compound further displayed an IC50 in assay [1] of 0.47 nM.

For the compound `CC(C)(C)NC(=O)[C@H]1CN(S(=O)(=O)c2cccs2)CCN1C[C@H](O)C[C@@H](Cc1ccccc1)C(=O)NC1c2ccccc2C[C@H]1O` (stereo partly drawn), the ClC95 in the assay on MT4 was 31.3 nM. This compound also displayed an IC50 in assay [1] of 0.1 nM.

In general, IC50 refers to the midpoint of a concentration-inhibition curve. Low values mean greater potency in that assay, high ones weaker potency in that assay.
